Tests used:
[1] = tested on: Influenza A Virus H1N1v strain A/Regensburg/D6/09 (H1N1v); format: cell-based

| Molecule | Effect on VeroE6 cell viability compared to mock control (VeroE6 cells) | Dilution at which PFU reduction reached the detection limit [1] | Total GRFT concentration at which PFU reduction reached the detection limit [1] [mg/mL] | PFU reduction in virus infected cells ([1]; A549 cells, different dilutions/concentrations, n=3 per reading point) | Toxic effect on VeroE6 cell viability compared to mock control (VeroE6 cells) |
| --- | --- | --- | --- | --- | --- |
| CO[C@H]1C[C@@H]2CC[C@@H](C)[C@@](O)(O2)C(=O)C(=O)N2CCCC[C@H]2C(=O)O[C@H]([C@H](C)C[C@@H]2CC[C@@H](O)[C@H](OC)C2)CC(=O)[C@H](C)/C=C(\C)[C@@H](O)[C@@H](OC)C(=O)[C@H](C)C[C@H](C)/C=C/C=C/C=C/1C [Rapamycin, reference compound] | slightly decreased the viability of cells | – | – | – | – |
| Griffithsin [unencapsulated GRFT] | – | did not reach the detection limit at 1:2 dilution | > 1.325 | concentration dependent PFU reduction | no specific toxic effect |

— patent US20240366712A1, “G[…] USE IN A METHOD OF PREVENTING OR TREATING INFECTIONS WITH R[…]” (priority 2021, published 2024)
